This is an account of results in patent US20250313572A1, “MACROCYCLIC MCL-1 INHIBITORS AND METHODS OF USE” (AbbVie Inc., priority 2017, published 2025).

Test [1] relates to NCI-H929 human multiple myeloma tumor cell line. The test is described as follows: NCI-H929 cell viability assay (CellTiter-Glo, 24 hours). Format: cell-based. To be noted: Homo sapiens, NCI-H929, 24 h, read-out: H929 Viability IC50 (μM, 10% FBS), 10% FBS, 24 hours of compound treatment.
Description: Each concentration was tested in duplicate at least 3 independent times. A luminescent signal proportional to the number of viable cells following 24 hours of compound treatment was determined using the CellTiter-Glo® Luminescent Cell Viability Assay according to the manufacturer's recommendations (Promega Corp., Madison, WI). The plates were read in a Perkin Elmer Envision using a Luminescence protocol. To generate dose response curves the data is normalized to percent viability by setting the averages of the staurosporine (10 μM) and DMSO only control wells to 0% and 100% viability respectively.
Test [2] has as its target GST-MCL-1 (Homo sapiens, UniProt Q07820). The test is described as follows: TR-FRET MCL-1 binding assay (competition with probe F-Bak). The conditions noted are these: for Ki: MCL-1 Binding Ki (nM, 10% HS), in the presence of 10% HS (human serum); for pKi: without HS, read-out: MCL-1 Binding Ki. The procedure, abridged:
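Displacement of F-Bak from GST-MCL-1 is detected by time-resolved FRET with a Tb-labelled anti-GST antibody, with excitation 340/35 nm and emission 520/525 and 495/510 nm, after 2 hours at room temperature. Compounds were titrated in 11 three-fold steps starting at 25 μM final, in buffer alone or in 10% HS.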
For orientation: Time-resolved FRET reads energy transfer from a long-lived donor to a nearby acceptor.

Test [3] relates to AMO-1 human multiple myeloma tumor cell line. The test is described as follows: AMO-1 cell viability assay (CellTiter-Glo, 24 hours). The format is cell-based. To be noted: Homo sapiens, AMO1, 24 h, read-out: AMO-1 Viability IC50 (μM, 10% FBS), 10% FBS, 24 hours of compound treatment. (Cellular ATP, detected with luciferase, serves as a proxy for viable cell number.)

pKi: −log10 of the molar value. Where two headings read alike, the source gives them in different places.

Chain of GST-MCL-1 (Q07820 whole entry): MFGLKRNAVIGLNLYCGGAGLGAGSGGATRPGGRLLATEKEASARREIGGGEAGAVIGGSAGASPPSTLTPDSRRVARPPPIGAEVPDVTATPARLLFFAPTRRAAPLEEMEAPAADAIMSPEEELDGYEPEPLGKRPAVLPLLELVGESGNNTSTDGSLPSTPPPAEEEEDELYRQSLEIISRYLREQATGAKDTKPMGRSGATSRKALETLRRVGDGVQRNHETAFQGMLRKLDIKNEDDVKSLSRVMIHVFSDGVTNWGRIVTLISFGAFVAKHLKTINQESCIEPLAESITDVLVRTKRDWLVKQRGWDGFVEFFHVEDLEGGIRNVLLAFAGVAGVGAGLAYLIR

As to `Cc1c(Cl)c2c(Cl)c(C)c1-c1c(-c3ccc(F)cc3)sc3ncnc(c13)O[C@@H](C(=O)O)Cc1cc(ccc1OCc1ccnc(-c3cccc(CP(C)(C)=O)c3)n1)OC[C@@H](CN1CCN(C)CC1)O2` [Example 51, (7R,16R)-19,23-dichloro-10-[(2-{3-[(dimethylphosphoryl)methyl]phenyl}pyrimidin-4-yl)methoxy]-1-(4-fluorophenyl)-20,22-dimethyl-16-[(4-methylpiperazin-1-yl)methyl]-7,8,15,16-tetrahydro-18,21-etheno-13,9-(metheno)-6,14,17-trioxa-2-thia-3,5-diazacyclononadeca[1,2,3-cd]indene-7-carboxylic Acid], the IC50 (commonly the concentration that gives 50% inhibition) in test [1] stood at 0.00671 µM. In test [2], the Ki (as a rule, a dissociation constant, usually derived from enzyme kinetics or from competition with a known ligand) is 0.076 nM and the negative-log Ki (pKi) (usually the Ki on a negative log10 scale, so that one unit is a factor of ten) was 10.96. For the same compound, the half-inhibitory concentration (IC50) in test [3] came to 0.0034 µM.
For `COCCOCCOCCC1CCN(c2nccc(COc3ccc4cc3C[C@H](C(=O)O)Oc3ncnc5sc(-c6ccc(F)cc6)c(c35)-c3c(C)c(Cl)c(c(Cl)c3C)O[C@H](CN3CCN(C)CC3)CO4)n2)CC1` [Example 52, (7R,16R)-19,23-dichloro-1-(4-fluorophenyl)-10-{[2-(4-{2-[2-(2-methoxyethoxy)ethoxy]ethyl}piperidin-1-yl)pyrimidin-4-yl]methoxy}-20,22-dimethyl-16-[(4-methylpiperazin-1-yl)methyl]-7,8,15,6-tetrahydro-18,21-etheno-9,13-(metheno)-6,14,17-trioxa-2-thia-3,5-diazacyclononadeca[1,2,3-cd]indene-7-carboxylic Acid] the same measures were 0.00269 µM, 3.31 nM, 9.46 and 0.000648 µM.
For `COCCOCCOCCOCCCN1CCN(c2nccc(COc3ccc4cc3C[C@H](C(=O)O)Oc3ncnc5sc(-c6ccc(F)cc6)c(c35)-c3c(C)c(Cl)c(c(Cl)c3C)O[C@H](CN3CCN(C)CC3)CO4)n2)CC1` [Example 53, (7R,16R)-19,23-dichloro-1-(4-fluorophenyl)-20,22-dimethyl-16-[(4-methylpiperazin-1-yl)methyl]-10-({2-[4-(2,5,8,11-tetraoxatetradecan-14-yl)piperazin-1-yl]pyrimidin-4-yl}methoxy)-7,8,15,16-tetrahydro-18,21-etheno-13,9-(metheno)-6,14,17-trioxa-2-thia-3,5-diazacyclononadeca[1,2,3-cd]indene-7-carboxylic Acid], in that order: 0.00571 µM, 0.632 nM, 9.52 and 0.0042 µM.
With `COCCOCCOCCOCCOCCOCCOCCOc1ccc(-c2nccc(COc3ccc4cc3C[C@H](C(=O)O)Oc3ncnc5sc(-c6ccc(F)cc6)c(c35)-c3c(C)c(Cl)c(c(Cl)c3C)O[C@H](CN3CCN(C)CC3)CO4)n2)cc1` [Example 54, (7R,16R)-19,23-dichloro-1-(4-fluorophenyl)-10-[(2-{4-[(2,5,8,11,14,17,20-heptaoxadocosan-22-yl)oxy]phenyl}pyrimidin-4-yl)methoxy]-20,22-dimethyl-16-[(4-methylpiperazin-1-yl)methyl]-7,8,15,16-tetrahydro-18,21-etheno-13,9-(metheno)-6,14,17-trioxa-2-thia-3,5-diazacyclononadeca[1,2,3-cd]indene-7-carboxylic Acid], the IC50 in test [1] was determined as 0.000771 µM; in test [3], 0.000591 µM. In addition, the inhibition constant (Ki) in test [2] was 0.139 nM. In addition, the negative-log Ki (pKi) in test [2] was 10.60.
With `Cc1c2ccc(c1Cl)O[C@H](CN1CCN(C)CC1)COc1ccc(OCc3ccnc([C@H]4CCCN4C(=O)CCP(C)(C)=O)n3)c(c1)C[C@H](C(=O)O)Oc1ncnc3sc(-c4ccc(F)cc4)c-2c13` [Example 55, (7R,16R)-19-chloro-10-[(2-{(2R)-1-[3-(dimethylphosphoryl)propanoyl]pyrrolidin-2-yl}pyrimidin-4-yl)methoxy]-1-(4-fluorophenyl)-20-methyl-16-[(4-methylpiperazin-1-yl)methyl]-7,8,15,16-tetrahydro-18,21-etheno-13,9-(metheno)-6,14,17-trioxa-2-thia-3,5-diazacyclononadeca[1,2,3-cd]indene-7-carboxylic Acid], the IC50 in test [1] and in test [3] was greater than 1 µM each time. Further, the Ki in test [2] was 92.6 nM. For the same compound, the negative logarithm of the Ki (pKi) in test [2] is 7.42.
With `Cc1c(Cl)c2c(Cl)c(C)c1-c1c(-c3ccc(F)cc3)sc3ncnc(c13)O[C@@H](C(=O)O)Cc1cc(ccc1OCc1ccnc(N3C[C@H](O)[C@@H](O)C3)n1)OC[C@@H](CN1CCN(C)CC1)O2` [Example 56, (7R,16R)-19,23-dichloro-10-({2-[(3S,4S)-3,4-dihydroxypyrrolidin-1-yl]pyrimidin-4-yl}methoxy)-1-(4-fluorophenyl)-20,22-dimethyl-16-[(4-methylpiperazin-1-yl)methyl]-7,8,15,16-tetrahydro-18,21-etheno-13,9-(metheno)-6,14,17-trioxa-2-thia-3,5-diazacyclononadeca[1,2,3-cd]indene-7-carboxylic Acid], in test [1], the IC50 is 0.13 µM. Also, in test [2], the Ki was 1.18 nM and the pKi is 9.80. For the same compound, the IC50 in test [3] is 0.0534 µM.
For `COCCOCCOCCO[C@H]1CC[C@H](c2nccc(COc3ccc4cc3C[C@H](C(=O)O)Oc3ncnc5sc(-c6ccc(F)cc6)c(c35)-c3c(C)c(Cl)c(c(Cl)c3C)O[C@H](CN3CCN(C)CC3)CO4)n2)CC1` [Example 57, (7R,16R)-19,23-dichloro-1-(4-fluorophenyl)-10-({2-[(1r,4r)-4-{2-[2-(2-methoxyethoxy)ethoxy]ethoxy}cyclohexyl]pyrimidin-4-yl}methoxy)-20,22-dimethyl-16-[(4-methylpiperazin-1-yl)methyl]-7,8,15,16-tetrahydro-18,21-etheno-13,9-(metheno)-6,14,17-trioxa-2-thia-3,5-diazacyclononadeca[1,2,3-cd]indene-7-carboxylic Acid], in that order: 0.00037 µM, 0.072 nM, 10.89 and 0.000244 µM.
Consider `COCCOCCOCCOCCOCC1(c2nccc(COc3ccc4cc3C[C@H](C(=O)O)Oc3ncnc5sc(-c6ccc(F)cc6)c(c35)-c3c(C)c(Cl)c(c(Cl)c3C)O[C@H](CN3CCN(C)CC3)CO4)n2)CCC1` [Example 58, (7R,16R)-19,23-dichloro-1-(4-fluorophenyl)-20,22-dimethyl-16-[(4-methylpiperazin-1-yl)methyl]-10-({2-[1-(2,5,8,11,14-pentaoxapentadecan-1-yl)cyclobutyl]pyrimidin-4-yl}methoxy)-7,8,15,16-tetrahydro-18,21-etheno-13,9-(metheno)-6,14,17-trioxa-2-thia-3,5-diazacyclononadeca[1,2,3-cd]indene-7-carboxylic Acid], for which the IC50 in test [1] is 0.00056 µM. In test [2], the Ki stood at 0.161 nM and the negative-log Ki (pKi) is 10.30. In test [3], the IC50 was found to be 0.000378 µM.
For `COCCOCCOCCOCCOCCOCC1(c2nccc(COc3ccc4cc3C[C@H](C(=O)O)Oc3ncnc5sc(-c6ccc(F)cc6)c(c35)-c3c(C)c(Cl)c(c(Cl)c3C)O[C@H](CN3CCN(C)CC3)CO4)n2)CCC1` [Example 59, (7R,16R)-19,23-dichloro-1-(4-fluorophenyl)-10-({2-[1-(2,5,8,11,14,17-hexaoxaoctadecan-1-yl)cyclobutyl]pyrimidin-4-yl}methoxy)-20,22-dimethyl-16-[(4-methylpiperazin-1-yl)methyl]-7,8,15,16-tetrahydro-18,21-etheno-13,9-(metheno)-6,14,17-trioxa-2-thia-3,5-diazacyclononadeca[1,2,3-cd]indene-7-carboxylic Acid], in that order: 0.000848 µM, 0.122 nM, 10.33 and 0.000686 µM.
As to `COCCOCCOCCOCCOCCOCCOCC1(c2nccc(COc3ccc4cc3C[C@H](C(=O)O)Oc3ncnc5sc(-c6ccc(F)cc6)c(c35)-c3c(C)c(Cl)c(c(Cl)c3C)O[C@H](CN3CCN(C)CC3)CO4)n2)CCC1` [Example 60, (7R,16R)-19,23-dichloro-1-(4-fluorophenyl)-10-({2-[1-(2,5,8,11,14,17,20-heptaoxahenicosan-1-yl)cyclobutyl]pyrimidin-4-yl}methoxy)-20,22-dimethyl-16-[(4-methylpiperazin-1-yl)methyl]-7,8,15,16-tetrahydro-18,21-etheno-13,9-(metheno)-6,14,17-trioxa-2-thia-3,5-diazacyclononadeca[1,2,3-cd]indene-7-carboxylic Acid], the IC50 in test [1] turned out to be 0.00115 µM. Besides, in test [2], the inhibition constant Ki was 0.125 nM and the pKi was 10.38. Moreover, the IC50 in test [3] was 0.000987 µM.
For `Cc1c(Cl)c2c(Cl)c(C)c1-c1c(-c3ccc(F)cc3)sc3ncnc(c13)O[C@@H](C(=O)O)Cc1cc(ccc1OCc1ccnc(N3CCC4(CCCNC4=O)CC3)n1)OC[C@@H](CN1CCN(C)CC1)O2` [Example 61, (7R,16R)-19,23-dichloro-1-(4-fluorophenyl)-20,22-dimethyl-16-[(4-methylpiperazin-1-yl)methyl]-10-{[2-(1-oxo-2,9-diazaspiro[5.5]undecan-9-yl)pyrimidin-4-yl]methoxy}-7,8,15,16-tetrahydro-18,21-etheno-13,9-(metheno)-6,14,17-trioxa-2-thia-3,5-diazacyclononadeca[1,2,3-cd]indene-7-carboxylic Acid], in that order: 0.0115 µM, 4.2 nM, 9.44 and 0.00886 µM.
